The target of this assay is T1, PscE-PscG interaction (Pseudomonas aeruginosa, UniProt P95435+Q9I317).
T1 construct: made in house; host or cells: E. coli
As to the kind of experiment: ELISA test of inhibition of the PscE-PscG interaction. The class given is binding. The settings on record: for PscE-PscG at 50 μM: inhibition by new synthetic analogues at 50 μM, PscG 2.2 μM, PscE solution 3 μM; for inhibition at 50 µM: 4 h, read-out: PscE-PscG at 50 μM; for inhibitory effect compared with clioquinol: ELISA test, 50 μM, Table 2; for inhibition at 25 µM: read-out: % inhibition PscE-PscG at 50 μm. On the procedure: 50 μL of PscG protein at 1 μM (for screening libraries) or 2.2 μM (for screening newly synthesized molecules) is incubated in a NUNC 96-well plate for 8 h at 4° C. The wells are washed three times with 200 μL of 1× PBS/0.1% Tween20®. The wells are treated overnight at 4° C. with 200 μL of a 5% milk solution in 1× PBS/0.1% Tween20®. The solution is then discarded, and the plate is drained dry.
The test is carried out as follows:
Negative control (lowest signal level): 100 μL of buffer ([…] Tris-HCl, 250 mM NaCl, pH 8.0);
Positive control (highest signal level): 50 μL of buffer and 50 μL of a test solution at 25 (library screening) or 3 μM (screening of analogue molecules) of the PscE protein;
Test of the inhibitors: 40 μL buffer, 50 μL of a solution at 25 μM (library screening) or 3 μM (screening of analogue molecules) of PscE protein and 10 μL of the solution containing the inhibitor to be tested.
The solutions are left for 4 h at room temperature.
The wells are washed three times with 200 μL of 1× PBS/0.1% Tween20®. The anti-PscE antibody diluted to 1:2,000 in 1× PBS/0.1% Tween20®, 50 μL, is added and the whole is left 2 h at room temperature. The wells are washed three times with 200 μL of 1× PBS/0.1% Tween20®. The HRP-conjugated anti-mouse antibody is diluted to 1:5,000 in 1× PBS/0.1% Tween20® and 50 μL is added and left for 2 h at room temperature. The wells are washed three times with 200 μL of 1× PBS/0.1% Tween20®.
The ELISA test is developed by adding 50 μL of TMB reagent followed by incubation for 15 minutes at room temperature in the dark. The reaction is stopped by adding 50 μL of 2N HCl. The plate is read at 450 nm.

pIC50: −log10 of the molar value.

T1 sequence (Q9I317 whole entry): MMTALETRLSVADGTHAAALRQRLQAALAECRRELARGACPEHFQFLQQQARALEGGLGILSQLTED
T1 sequence (P95435 whole entry): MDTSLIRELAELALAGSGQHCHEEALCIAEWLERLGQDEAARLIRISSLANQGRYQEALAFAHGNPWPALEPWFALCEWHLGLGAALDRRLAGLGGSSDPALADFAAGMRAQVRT

Turning to `CC(=O)Oc1c(-c2cn(CCCCCCOCCCc3ccc[n+](CCCCCCCCCCCCOCCCc4cccnc4)c3)nn2)cc(Cl)c2cccnc12` [molecule 46, 3-(3-(6-(4-(8-acetoxy-5-chloroquinolin-7-yl)-1H-1,2,3-triazol-1-yl)hexyloxy)propyl)-1-(12-(3-(pyridin-3-yl)propoxy)dodecyl)pyridinium chloride], the “PscE-PscG at 50 μM” value was “no inhibition”.
In the case of `CC(=O)Oc1c(-c2cn(CCCCCCOCCCc3ccc[n+](CCCCCCCCCCOCCCc4cccnc4)c3)nn2)cc(Cl)c2cccnc12` [molecule 45, 3-(3-(6-(4-(8-acetoxy-5-chloroquinolin-7-yl)-1H-1,2,3-triazol-1-yl)hexyloxy)propyl)-1-(10-(3-(pyridin-3-yl)propoxy)decyl)pyridinium chloride], the inhibition at 50 µM worked out at 71.6% and the “inhibitory effect compared with clioquinol” value is “superior to clioquinol”.
On to `O=c1c(O)c(-c2cc(O)c(O)c(O)c2)oc2cc(O)cc(O)c12` [Myricetin, reference compound], for which the inhibition at 25 µM turned out to be 80.5%.
On to `[N-]=[N+]=NCCCCCCOCCCc1ccc[n+](CCCCCCCCCCOCCCc2cccnc2)c1` [molecule 27, 3-(3-(6-azidohexyloxy)propyl)-1-(10-(3-(pyridin-3-yl)propoxy)decyl)pyridinium chloride], for which the inhibition at 50 µM turned out to be 39.6%.
In the case of `[N-]=[N+]=NCCCCCCCCCCCCOCCCc1ccc[n+](CCCCOCCCc2cccnc2)c1` [molecule 26, 3-(3-(12-azidododecyloxy)propyl)-1-(4-(3-(pyridin-3-yl)propoxy)butyl)pyridinium chloride], the inhibition at 50 µM amounted to 44.2%.
On to `CC(=O)Oc1c(-c2cn(CCCCCCCCOCCCc3ccc[n+](CCCCCCCCOCCCc4cccnc4)c3)nn2)cc(Cl)c2cccnc12` [molecule 43, 3-(3-(8-(4-(8-acetoxy-5-chloroquinolin-7-yl)-1H-1,2,3-triazol-1-yl)octyloxy)propyl)-1-(8-(3-(pyridin-3-yl)propoxy)octyl)pyridinium chloride], for which the inhibition at 50 µM was 29.5%.
In the case of `CC(=O)Oc1c(-c2cn(CCCCCCOCCCc3ccc[n+](CCCCCCCCOCCCc4cccnc4)c3)nn2)cc(Cl)c2cccnc12` [molecule 40, 3-(3-(6-(4-(8-acetoxy-5-chloroquinolin-7-yl)-1H-1,2,3-triazol-1-yl)hexyloxy)propyl)-1-(8-(3-(pyridin-3-yl)propoxy)octyl)pyridinium chloride], the inhibition at 50 µM was found to be 87.2% and the “inhibitory effect compared with clioquinol” value is listed as “superior to clioquinol”.
As for `CC(=O)Oc1c(-c2cn(CCCCOCCCc3ccc[n+](CCCCCCOCCCc4cccnc4)c3)nn2)cc(Cl)c2cccnc12` [molecule 36, 3-(3-(4-(4-(8-acetoxy-5-chloroquinolin-7-yl)-1H-1,2,3-triazol-1-yl)butoxy)propyl)-1-(6-(3-(pyridin-3-yl)propoxy)hexyl)pyridinium chloride], the inhibition at 50 µM came out at 54.2% and the “inhibitory effect compared with clioquinol” value is given as “superior to clioquinol”.
For `CC(=O)Oc1c(-c2cn(CCCCCCCCOCCCc3ccc[n+](CCCCCCCCCCOCCCc4cccnc4)c3)nn2)cc(Cl)c2cccnc12` [molecule 47, 3-(3-(8-(4-(8-acetoxy-5-chloroquinolin-7-yl)-1H-1,2,3-triazol-1-yl)octyloxy)propyl)-1-(10-(3-(pyridin-3-yl)propoxy)decyl)pyridinium chloride], the “PscE-PscG at 50 μM” value is listed as “no inhibition”.
In the case of `CC(=O)Oc1c(-c2cn(CCCCCCOCCCc3ccc[n+](CCCCCCOCCCc4cccnc4)c3)nn2)cc(Cl)c2cccnc12` [molecule 39, 3-(3-(6-(4-(8-acetoxy-5-chloroquinolin-7-yl)-1H-1,2,3-triazol-1-yl)hexyloxy)propyl)-1-(6-(3-(pyridin-3-yl)propoxy)hexyl)pyridinium chloride], the inhibition at 50 µM stood at 97.3% and the “inhibitory effect compared with clioquinol” value is “superior to clioquinol”.
For the compound `CC(=O)Oc1c(-c2cn(CCCCCCCCCCOCCCc3ccc[n+](CCCCCCOCCCc4cccnc4)c3)nn2)cc(Cl)c2cccnc12` [molecule 42, 3-(3-(10-(4-(8-acetoxy-5-chloroquinolin-7-yl)-1H-1,2,3-triazol-1-yl)decyloxy)propyl)-1-(6-(3-(pyridin-3-yl)propoxy)hexyl)pyridinium chloride], the “PscE-PscG at 50 μM” value is “no inhibition”.
On to `[N-]=[N+]=NCCCCOCCCc1ccc[n+](CCCCCCCCOCCCc2cccnc2)c1` [molecule 20, 3-(3-(4-azidobutoxy)propyl)-1-(8-(3-(pyridin-3-yl)propoxy)octyl)pyridinium chloride], for which the “PscE-PscG at 50 μM” value is listed as “no inhibition”.
On to `CC(=O)Oc1c(-c2cn(CCCCOCCCc3ccc[n+](CCCCCCCCOCCCc4cccnc4)c3)nn2)cc(Cl)c2cccnc12` [molecule 38, 3-(3-(4-(4-(8-acetoxy-5-chloroquinolin-7-yl)-1H-1,2,3-triazol-1-yl)butoxy)propyl)-1-(8-(3-(pyridin-3-yl)propoxy)octyl)pyridinium chloride], for which the inhibition at 50 µM turned out to be 27.3%.
With `Oc1c(I)cc(Cl)c2cccnc12` [Clioquinol, reference compound], the pIC50 was 5.30 and the inhibition at 25 µM was found to be 93.7%. Further, under “240 min”, the “PscE-PscG at 50 μM” value is recorded as 45.2%.
For the compound `CC(=O)Oc1c(-c2cn(CCCCCCCCCCCCOCCCc3ccc[n+](CCCCCCCCCCOCCCc4cccnc4)c3)nn2)cc(Cl)c2cccnc12` [molecule 51, 3-(3-(12-(4-(8-acetoxy-5-chloroquinolin-7-yl)-1H-1,2,3-triazol-1-yl)dodecyloxy)propyl)-1-(10-(3-(pyridin-3-yl)propoxy)decyl)pyridinium chloride], the inhibition at 50 µM is 28.9%.
With `CC(=O)Oc1c(-c2cn(CCCCCCCCCCOCCCc3ccc[n+](CCCCCCCCCCOCCCc4cccnc4)c3)nn2)cc(Cl)c2cccnc12` [molecule 48, 3-(3-(10-(4-(8-acetoxy-5-chloroquinolin-7-yl)-1H-1,2,3-triazol-1-yl)decyloxy)propyl)-1-(10-(3-(pyridin-3-yl)propoxy)decyl)pyridinium chloride], the inhibition at 50 µM amounted to 72.3% and the “inhibitory effect compared with clioquinol” value is reported as “superior to clioquinol”.
On to `[N-]=[N+]=NCCCCCCCCCCCCOCCCc1ccc[n+](CCCCCCCCOCCCc2cccnc2)c1` [molecule 31, 3-(3-(12-azidododecyloxy)propyl)-1-(8-(3-(pyridin-3-yl)propoxy)octyl)pyridinium chloride], for which the inhibition at 50 µM turned out to be 82.9% and the “inhibitory effect compared with clioquinol” value is listed as “superior to clioquinol”.
Regarding `[N-]=[N+]=NCCCCCCCCCCCCOCCCc1ccc[n+](CCCCCCCCCCCCOCCCc2cccnc2)c1` [molecule 34, 3-(3-(12-azidododecyloxy)propyl)-1-(12-(3-(pyridin-3-yl)propoxy)dodecyl)pyridinium chloride], the inhibition at 50 µM came to 30.6%.
For the compound `CC(=O)Oc1c(-c2cn(CCCCOCCCc3ccc[n+](CCCCOCCCc4cccnc4)c3)nn2)cc(Cl)c2cccnc12` [molecule 35, 3-(3-(4-(4-(8-acetoxy-5-chloroquinolin-7-yl)-1H-1,2,3-triazol-1-yl)butoxy)propyl)-1-(4-(3-(pyridin-3-yl)propoxy)butyl)pyridinium chloride], the inhibition at 50 µM amounted to 29.8%.
As to `[N-]=[N+]=NCCCCCCCCCCOCCCc1ccc[n+](CCCCCCCCCCOCCCc2cccnc2)c1` [molecule 30, 3-(3-(10-azidodecyloxy)propyl)-1-(10-(3-(pyridin-3-yl)propoxy)decyl)pyridinium chloride], the inhibition at 50 µM was 52.8% and the “inhibitory effect compared with clioquinol” value is “superior to clioquinol”.
For `CC(=O)Oc1c(-c2cn(CCCCCCOCCCc3ccc[n+](CCCCOCCCc4cccnc4)c3)nn2)cc(Cl)c2cccnc12` [molecule 37, 3-(3-(6-(4-(8-acetoxy-5-chloroquinolin-7-yl)-1H-1,2,3-triazol-1-yl)hexyloxy)propyl)-1-(4-(3-(pyridin-3-yl)propoxy)butyl)pyridinium chloride], the inhibition at 50 µM stood at 92.5% and the “inhibitory effect compared with clioquinol” value was “superior to clioquinol”.
On to `CC(=O)Oc1c(-c2cn(CCCCCCCCCCCCOCCCc3ccc[n+](CCCCOCCCc4cccnc4)c3)nn2)cc(Cl)c2cccnc12` [molecule 44, 3-(3-(12-(4-(8-acetoxy-5-chloroquinolin-7-yl)-1H-1,2,3-triazol-1-yl)dodecyloxy)propyl)-1-(4-(3-(pyridin-3-yl)propoxy)butyl)pyridinium chloride], for which the inhibition at 50 µM stood at 33.4%.
On to `[N-]=[N+]=NCCCCCCOCCCc1ccc[n+](CCCCCCCCOCCCc2cccnc2)c1` [molecule 22, 3-(3-(6-azidohexyloxy)propyl)-1-(8-(3-(pyridin-3-yl)propoxy)octyl)pyridinium chloride], for which the inhibition at 50 µM amounted to 88.8% and the “inhibitory effect compared with clioquinol” value is on record as “superior to clioquinol”.

What is called pIC50 is −log10 of the IC50, conventionally taken in molar units. The low end stands for a large IC50, the high end for a small IC50.

Values taken from patent publication US10908153B2, “Pseudomonas aeruginosa inhibitor compounds” (priority 2015, dated 2021).
